Measured values taken from patent publication EP0846119B1, “THIENOPYRIMIDINE DERIVATIVES, THEIR PRODUCTION AND USE AS ENDOTHELIN ANTAGONISTS” (Takeda Chemical Industries, Ltd., priority 1995, dated 1997).
Read-outs that look alike come from different tables or passages of the source.

Columns and labels:
[1] = target: T1, human endothelin-B (ETB) receptors (Homo sapiens, UniProt P24530); assay: Binding Test to ETB receptor expressed in an insect cell Sf9 ([125I]endothelin-1 displacement)
T1 construct: made in house; host or cells: Sf9 insect cells (membrane fractions)
T1 sequence (P24530 27-442): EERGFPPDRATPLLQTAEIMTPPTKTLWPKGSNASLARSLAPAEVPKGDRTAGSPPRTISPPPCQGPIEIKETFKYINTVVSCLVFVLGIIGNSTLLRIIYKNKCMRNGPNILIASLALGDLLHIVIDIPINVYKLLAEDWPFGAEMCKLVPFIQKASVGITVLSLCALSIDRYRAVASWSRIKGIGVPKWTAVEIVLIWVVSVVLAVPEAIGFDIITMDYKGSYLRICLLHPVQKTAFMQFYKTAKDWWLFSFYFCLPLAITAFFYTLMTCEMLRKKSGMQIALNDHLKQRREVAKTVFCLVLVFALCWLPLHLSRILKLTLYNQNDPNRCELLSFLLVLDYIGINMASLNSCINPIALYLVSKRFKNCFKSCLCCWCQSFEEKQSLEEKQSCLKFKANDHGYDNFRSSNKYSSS
Method: Binding Test to ETB receptor expressed in an insect cell Sf9:
Endothelin (ET) receptors were prepared by diluting fractions of insect cell (Sf9) membrane having human endothelin-B (ETB) receptors expressed, with an assay buffer {200 mM Tris-HCl, 2 mM EGTA (ethylenegiycol bis(2-aminoethylether) tetra acetic acid), 5 mM magnesium acetate, 0.1% BSA (bovine serum albumin), 0.03% NaN3, 0.5 mM PMSF(phenyl methyl sulfonyl fluoride), 20 µg/ml leupeptin, 4 µg/ml E-64 (products of the Peptide Institute), 1 µg/ml pepstatin, (pH 7.2)} respectively in a concentration of 1.4 µg/ml in the former case and 0.7 µg/ml in the latter case.
To 100 µl of each portion was added 5 nM[^125I] endothelin-1 (2 µl). A dimethylsulfoxide solution (3 µl) of the sample was added thereto and incubated at 25°C fpr 60 minutes.
And, to determine the maximum binding amount (B0) and non-specific binding amount (NSB), lots to which a dimethyl sulfoxide solution (3 µl) or a dimethyl sulfoxide solution (3 µl) containing endothelin-1 (10^-5M) had been added, were also incubated.
These lots were supplemented with 0.05% CHAPS(3-[(3-chloroamidopropyl)dimethylammonio]-1-propanesulfonate)-assay buffer (1.5 ml), subjected to filtration through a glass fiber filter GF/F (trade name; product of Whatman Ltd. (England)), and then washed with the same buffer (1.5 ml).
Radioactivity on the filter was counted in a gamma-counter to determine the Percent Maximum Binding (PMB) in accordance with the aforesaid calculation formula. The concentration causing PMB=50% was determined as IC50 value.

[2] = system: coronary artery where ETA is expressed; assay: Inhibition Test on coronary artery where ETA is expressed (ET-1-induced constriction of ring samples); details: porcine coronary artery ring, pre-treatment 30 minutes, relative to vehicle group
Method: Inhibition Test on coronary artery where ETA is expressed:
3-mm ring samples for vehicle group and drug-treating group were prepared by removing fat and connective tissue from coronary artery enucleated from porcine heart and obtained from the adjacent portions thereof. The samples, hanging in Magnus tube filled with Krebs solution, were stabilized for 90 minutes under 2 g of static tension. After subjecting the samples to constriction for 10 minutes by potassium chloride (KCl) (60 mM) to obtain the maximum reaction, the samples were then washed and stabilized for 60 minutes. […]
The constriction efficiency (% KCl) of ET-1 was calculated as a relative value to KCl constriction of each sample which was regarded as 100%. Further, the inhibiting efficiency was calculated from the constriction efficiency of the drug-treating group calculated as a relative value to the constriction of the vehicle group which was regarded as 100%.

[3] = target: T2, human ETA 24 endothelin receptor (Homo sapiens, UniProt P25101); assay: Binding Test to ETA receptor expressed in CHO cell (ET-1-stimulated [3H]arachidonic acid release); format: cell-based; details: CHO cell expressing human ETA (ETA 24 cells), final concentration of ET-1 6.3x10^-10M, n=2
T2 construct: expressed in transfected cells; host or cells: CHO cells (clone ETA 24)
T2 sequence (P25101 21-427): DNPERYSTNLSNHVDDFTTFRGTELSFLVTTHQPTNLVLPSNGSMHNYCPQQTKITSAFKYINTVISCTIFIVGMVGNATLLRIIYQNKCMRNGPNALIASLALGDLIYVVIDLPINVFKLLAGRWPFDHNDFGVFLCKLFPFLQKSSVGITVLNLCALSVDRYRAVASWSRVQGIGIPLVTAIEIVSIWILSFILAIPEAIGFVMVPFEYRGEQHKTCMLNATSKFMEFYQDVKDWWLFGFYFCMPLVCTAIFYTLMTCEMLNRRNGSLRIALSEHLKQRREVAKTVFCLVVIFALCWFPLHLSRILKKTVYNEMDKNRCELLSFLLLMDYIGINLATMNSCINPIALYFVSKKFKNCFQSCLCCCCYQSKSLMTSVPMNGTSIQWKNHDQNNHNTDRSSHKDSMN
Method: Binding Test to ETA receptor expressed in CHO cell:
cells: CHO cell expressing human ETA 24 endothelin receptor, i.e. ETA 24 cells medium: DMEM 10% FCS Gln, nonessential amino acids, penicillin, streptomycin
Cells were seeded in 12 wells of 24 well plates at a density of 2x10^5 cells/well (1 ml medium/well). On the next day, [^3H]arachidonic acid was added to each well to be 250 nCi(nanocurie)/ml. On the next day, the medium was sucked from the wells by the use of an aspirator to remove free arachidonic acid and floating cells, and then 0.5 ml of medium was added. This procedure was repeated again. After allowing to stand for 30 minutes in a CO2 incubator, the medium was exchanged rapidly.
The sample of compound obtained in Example 5 or compound 16 of Example 11 was stepwise diluted with a buffer solution for dilution, containing 3.15x10^-8M endothelin-1 (ET-1) {20 mM Tris, 5 mM Mg(AcO)2, 2 mM EGTA, 0.03% NaN3, 0.1% BSA, 0.05% CHAPS}. 10 µl of the solution was added to each well (final concentration of ET-1: 6.3x10^-10M). […] After allowing to-stand for 30 minutes in the CO2 incubator, the medium was completely collected and the radio activity of [^3H]arachidonic acid released in the medium was measured by a liquid scintillation counter. IC50 values were calculated by hill plot from the concentration and relative reaction value of each sample. […]

[4] = Sf9 membrane fractions, [125I]endothelin-1, 25°C, 60 minutes, concentration causing PMB=50%, read-out: IC50 value: µM Human endotherin-B receptor
[5] = Table 6, values recur in Table 8, read-out: Binding IC50 (µM) ETB

SMILES	IC50 [1, 4] [µM]	IC50 [1, 5] [µM]	% inhibition (MEAN ± S.E.M.) (n=) artery (ET-1 3nM) ([2]; compound 0.1 µM)	% inhibition (MEAN ± S.E.M.) (n=) artery (ET-1 3nM) ([2]; compound 1 µM)	IC50 [3] [nM]
COCOc1ccc(-c2sc3c(c2CNS(C)(=O)=O)c(=O)n(CC(=O)O)c(=O)n3Cc2ccccc2SC)cc1 [Example 5, 2,4(1H,3H)-dioxo-6-(4-methoxymethoxyphenyl)-1-(2-methylthiobenzyl)-5-(methanesulfonamidomethyl)thieno[2,3-d]pyrimidine-3-aretic acid]	0.2	0.1	7.6 ± 37.3 (3) %	78.1 ± 11.9 (4) %	390
CCS(=O)(=O)NCc1c(-c2ccc(OCOC)cc2)sc2c1c(=O)n(CC(=O)O)c(=O)n2Cc1ccccc1SC [11(16), 2,4(1H,3H)-Dioxo-6-(4-methoxymethoxyphenyl)-1-(2-methylthiobenzyl)-5-(ethanesulfonamidomethyl)thieno[2,3-d]pyrimidine-3-acetic acid]	0.054	0.054	–	33.1 ± 8.6 (4) %	110
